In US20250127937A1, “FAP INHIBITOR” (UNIVERSITÄT HEIDELBERG, priority 2018, published 2025):
Like-named read-outs stand apart in the source and are kept apart here. Blank lines part the entries; values can stand above or below the molecule they belong to.

What was measured:
human FAP-α = human FAP-α (Homo sapiens (Human), UniProt Q12884); assay: Competitive binding of radiolabeled compound to HT-1080-FAP cells against unlabeled compound; details: for IC50: read-out: IC50; for IC50-values: Cu-64 labeled
Protocol: Competition experiments were performed by simultaneous exposure to unlabeled (10^−5 M to 10^−9M) and radiolabeled compound for 60 min. […] For internalization experiments, surface bound activity was removed by incubating the cells with 1 M glycine-HCl buffer for 10 min. The radioactivity was measured using a γ-counter, normalized to 1 mio cells and calculated as percentage of applied dose (% ID).
The medium was replaced by 1 mL fresh medium without fetal calf serum. […] Competition experiments were performed by simultaneous exposure to unlabeled (10^−5 M to 10^−9 M) and radiolabeled compound for 60 min. […] In all experiments, the cells were washed with 1 mL phosphate-buffered saline pH 7.4 for 2 times and subsequently lysed with 1.4 ml lysis buffer (0.3 M NaOH, 0.2% SDS). Radioactivity was determined in a γ-counter (Cobra II, Packard), normalized to 1 mio cells and calculated as percentage of the applied dose (% ID). Each experiment was performed 3 times, and 3 repetitions per independent experiment were acquired.

[1] = test system: HT-1080-FAP tumor xenografts; assay: Small-animal imaging (PET, scintigraphy) in HT-1080-FAP tumor bearing mice; assay type: in vivo, mouse; details: for tumor uptake in vivo: Tc-99m labeled, scintigraphy
Protocol: For in vivo experiments, 8 week old BALB/c nu/nu mice (Charles River) were subcutaneously inoculated into the right trunk with 5×10^6 with HT-1080-FAP, Capan-2 or SK-LMS-1 cells, respectively. When the size of the tumor reached approximately 1 cm^3, the radiolabeled compound was injected via the tail vein (˜10 MBq for small-animal PET imaging; ˜1 MBq for organ distribution). […] Images were reconstructed iteratively using the 3D-OSEM+MAP method and were converted to standardized uptake value (SUV) images. Quantification was done using a ROI technique and expressed as SUV mean. For organ distribution of Lu-177 labeled compound ([…]), the animals (n=3 for each time point) were sacrificed after indicated time points (from 30 min to 24 h). The distributed radioactivity was measured in all dissected organs and in blood using a γ-counter (Cobra Autogamma, Packard). The values are expressed as percentage of injected dose per gram of tissue (% ID/g).

[2] = Blood pool clearance from SUVmean of the heart; assay type: in vivo; details: for Plateau value (SUVmean): hypothetical plateau, two phase exponential decay of heart SUVmean; for Blood pool-clearence (T1/2 [min]): rate determining half-life, two phase exponential decay of heart SUVmean 0.375-60 min
Text: The calculated plateau values, which were higher for Ga-68 labeled FAPI-13, -21, -36 and AlF-18 labeled FAPI-74 theoretically correspond to a higher fraction of compound which is not cleared due to unspecific binding or by remaining in circulating (Table 12).

[3] = test system: HT-1080-FAP tumor xenografts; assay: Organ distribution ex vivo in HT-1080-FAP tumor bearing nude mice; parameters: species or system mouse; details: for Tumor uptake 1 h / Tumor uptake 4 h / Tumor uptake 24 h: HT-1080-FAP tumor bearing nude mice, mean ± SD, n = 3
Protocol: For in vivo experiments, 8 week old BALB/c nu/nu mice (Charles River) were subcutaneously inoculated into the right trunk with 5×10^6 with HT-1080-FAP, Capan-2 or SK-LMS-1 cells, respectively. When the size of the tumor reached approximately 1 cm^3, the radiolabeled compound was injected via the tail vein (˜10 MBq for small-animal PET imaging; ˜1 MBq for organ distribution). PET imaging was performed up to 140 min after intravenous injection of 1 MBq of Ga-68 labeled compound per mouse using the Inveon PET small-animal PET scanner (Siemens). Images were reconstructed iteratively using the 3D-OSEM+MAP method and were converted to standardized uptake value (SUV) images. Quantification was done using a ROI technique and expressed as SUV mean. For organ distribution of Lu-177 labeled compound (approx. […] per mouse), the animals (n=3 for each time point) were sacrificed after indicated time points (from 30 min to 24 h). The distributed radioactivity was measured in all dissected organs and in blood using a γ-counter (Cobra Autogamma, Packard). The values are expressed as percentage of injected dose per gram of tissue (% ID/g).

HT-1080-FAP cells = assay: Efflux experiments in HT-1080-FAP cells; assay type: cell-based, human; details: Cu-64 labeled
Protocol: Radioligand binding studies were performed using HT-1080-FAP cells. The radiolabeled compound was added to the cell culture and incubated for different time intervals ranging from 10 min to 24 h. Competition experiments were performed by simultaneous exposure to unlabeled (10^−5 M to 10^−9M) and radiolabeled compound for 60 min. For efflux experiments, radioactive medium was removed after incubation for 60 min and replaced by non-radioactive medium for time intervals ranging from 1 to 24 h. For internalization experiments, surface bound activity was removed by incubating the cells with 1 M glycine-HCl buffer for 10 min. The radioactivity was measured using a γ-counter, normalized to 1 mio cells and calculated as percentage of applied dose (% ID).
For radioligand binding studies, cells were seeded in 6-well plates and cultivated for 48 h to a final confluence of approx. 80-90% (1.2-2 mio cells/well). The medium was replaced by 1 mL fresh medium without fetal calf serum. The radiolabeled compound was added to the cell culture and incubated for different time intervals ranging from 10 min to 24 h. Competition experiments were performed by simultaneous exposure to unlabeled (10^−5 M to 10^−9 M) and radiolabeled compound for 60 min. For efflux experiments, radioactive medium was removed after incubation for 60 min and replaced by non-radioactive medium for time intervals ranging from 1 to 24 h. In all experiments, the cells were washed with 1 mL phosphate-buffered saline pH 7.4 for 2 times and subsequently lysed with 1.4 ml lysis buffer (0.3 M NaOH, 0.2% SDS). Radioactivity was determined in a γ-counter (Cobra II, Packard), normalized to 1 mio cells and calculated as percentage of the applied dose (% ID). Each experiment was performed 3 times, and 3 repetitions per independent experiment were acquired.

[4] = Lu-177-labeled compound, unlabeled compound as competitor, HT-1080-FAP cells

human FAP-α, sequence (Q12884 whole entry): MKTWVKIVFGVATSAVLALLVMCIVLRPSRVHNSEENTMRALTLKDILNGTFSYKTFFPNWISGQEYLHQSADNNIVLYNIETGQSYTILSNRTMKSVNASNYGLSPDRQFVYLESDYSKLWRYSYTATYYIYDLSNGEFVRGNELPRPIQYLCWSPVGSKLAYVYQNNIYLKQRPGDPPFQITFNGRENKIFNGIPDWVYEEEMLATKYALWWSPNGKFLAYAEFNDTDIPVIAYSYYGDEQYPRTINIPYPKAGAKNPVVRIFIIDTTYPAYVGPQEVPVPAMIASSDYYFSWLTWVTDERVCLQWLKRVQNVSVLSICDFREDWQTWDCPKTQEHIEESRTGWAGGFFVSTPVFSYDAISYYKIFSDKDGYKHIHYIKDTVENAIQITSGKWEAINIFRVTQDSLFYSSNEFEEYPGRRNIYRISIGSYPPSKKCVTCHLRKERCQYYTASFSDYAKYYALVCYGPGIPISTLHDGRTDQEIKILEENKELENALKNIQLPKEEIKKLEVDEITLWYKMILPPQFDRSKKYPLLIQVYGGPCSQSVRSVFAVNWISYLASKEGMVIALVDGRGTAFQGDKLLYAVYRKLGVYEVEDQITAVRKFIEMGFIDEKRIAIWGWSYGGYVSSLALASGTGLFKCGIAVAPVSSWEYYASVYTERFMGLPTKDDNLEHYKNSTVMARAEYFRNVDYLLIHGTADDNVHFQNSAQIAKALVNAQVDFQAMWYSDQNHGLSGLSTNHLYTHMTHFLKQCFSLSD

Structure (SMILES): N#C[C@@H]1CC(F)(F)CN1C(=O)CNC(=O)c1ccnc2ccc(OCCCN3CCN(C(=O)CN(Cc4nccn4CC(=O)O)Cc4nccn4CC(=O)O)CC3)cc12 [FAPI-19]
IC50 (human FAP-α; Tc-99m labeled, HT-1080-FAP cells): 6.4 nM | tumor uptake in vivo [1]: insufficient tumor uptake

Structure (SMILES): N#C[C@@H]1CCCN1C(=O)CNC(=O)c1ccnc2ccc(OCCCN3CCN(C(=O)CN4CCN(CC(=O)O)CCN(CC(=O)O)CC4)CC3)cc12 [FAPI-74]
IC50 (human FAP-α; F-18-FAPI derivatives, table title says EC50, head says IC50): 9.2 nM | Plateau value (SUVmean) [2]: 0.32 | Blood pool-clearence (T1/2 [min]) [2]: 2.4 min | PET imaging findings ([1]; F-18 labeled (nicotinamide or AlF-18 NOTA), up to 140 min after i.v.): high target specificity and fast clearance

Structure (SMILES): CN(CCCN1CCN(C(=O)CN2CCN(CC(=O)O)CCN(CC(=O)O)CC2)CC1)c1ccc2nccc(C(=O)NCC(=O)N3CC(F)(F)C[C@H]3C#N)c2c1 [FAPI-52]
IC50-values (human FAP-α; HT-1080-FAP cells): lower nanomolar range

Structure (SMILES): N#C[C@@H]1CC(F)(F)CN1C(=O)CNC(=O)c1ccnc2ccc(OCCCC3CCN(C(=O)CN4CCN(CC(=O)O)CCN(CC(=O)O)CCN(CC(=O)O)CC4)CC3)cc12 [FAPI-13]
IC50 (human FAP-α; [4]): 4.5 nM | Tumor uptake 1 h [3]: 6.3 ± 0.57 % ID/g | Tumor uptake 4 h [3]: 8.7 ± 0.77 % ID/g | Tumor uptake 24 h [3]: 4.8 ± 1.71 % ID/g | Plateau value (SUVmean) [2]: 0.27 | Blood pool-clearence (T1/2 [min]) [2]: 5.5 min

Structure (SMILES): N#C[C@@H]1CC(F)(F)CN1C(=O)CNC(=O)c1ccnc2ccc(OCCCN3CCN(C(=O)CN(Cc4nccn4CC(=O)N[C@@H](CC(C(=O)O)C(=O)O)C(=O)O)Cc4nccn4CC(=O)N[C@@H](CC(C(=O)O)C(=O)O)C(=O)O)CC3)cc12 [FAPI-34]
tumor uptake in vivo [1]: continuously enriched within the tumor

Structure (SMILES): N#C[C@@H]1CC(F)(F)CN1C(=O)CNC(=O)c1ccnc2ccc(OCCCN3C[C@@H]4C[C@H]3CN4C(=O)CN3CCN(CC(=O)O)CCN(CC(=O)O)CCN(CC(=O)O)CC3)cc12 [FAPI-20]
IC50 (human FAP-α; [4]): 7.2 nM

Structure (SMILES): N#C[C@@H]1CC(F)(F)CN1C(=O)CNC(=O)c1ccnc2ccc(OCCCN3CCN(C(=O)CN4CCN(CC(=O)O)CCN(CC(=O)O)CC4)CC3)cc12 [FAPI-42]
IC50-values (human FAP-α; HT-1080-FAP cells): lower nanomolar range | calculated in vitro-half-life (efflux) (HT-1080-FAP cells): 720 min

Further lines, with some results ahead:

IC50 (human FAP-α; [4]): 42 nM
Structure (SMILES): N#C[C@@H]1CC(F)(F)CN1C(=O)CNC(=O)c1ccnc2ccc(OCCCN3CCN(CCN4CCN(CC(=O)O)CCN(CC(=O)O)CCN(CC(=O)O)CC4)CC3)cc12 [FAPI-47]

IC50 (human FAP-α; [4]): 11.3 nM
Structure (SMILES): N#C[C@@H]1CC(F)(F)CN1C(=O)CNC(=O)c1ccnc2ccc(CCCCN3CCN(C(=O)CN4CCN(CC(=O)O)CCN(CC(=O)O)CCN(CC(=O)O)CC4)CC3)cc12 [FAPI-39]

IC50 (human FAP-α; [4]): 13.5 nM | tumor-blood-ratios ([3]; Lu labeled, 1, 4 and 24 h, compared with FAPI-04): significantly higher ratios than FAPI-04 | Plateau value (SUVmean) [2]: 0.19
Structure (SMILES): CN(CCCN1CCN(C(=O)CN2CCN(CC(=O)O)CCN(CC(=O)O)CCN(CC(=O)O)CC2)CC1)c1ccc2nccc(C(=O)NCC(=O)N3CC(F)(F)C[C@H]3C#N)c2c1 [FAPI-46]
Blood pool-clearence (T1/2 [min]) [2]: 5.3 min

IC50 (human FAP-α; [4]): 26.3 nM
Structure (SMILES): N#C[C@@H]1CC(F)(F)CN1C(=O)CNC(=O)c1ccnc2ccc(OCCCN3CCN(CCCN4CCN(CC(=O)O)CCN(CC(=O)O)CCN(CC(=O)O)CC4)CC3)cc12 [FAPI-48]

IC50 (human FAP-α; [4]): 12.7 nM
Structure (SMILES): N#C[C@@H]1CC(F)(F)CN1C(=O)CNC(=O)c1ccnc2ccc(SCCCN3CCN(C(=O)CN4CCN(CC(=O)O)CCN(CC(=O)O)CCN(CC(=O)O)CC4)CC3)cc12 [FAPI-40]

IC50 (human FAP-α; [4]): 8.3 nM
Structure (SMILES): N#C[C@@H]1CC(F)(F)CN1C(=O)CNC(=O)c1ccnc2ccc(NCCCN3CCN(C(=O)CN4CCN(CC(=O)O)CCN(CC(=O)O)CCN(CC(=O)O)CC4)CC3)cc12 [FAPI-41]

IC50 (human FAP-α; [4]): 17.2 nM | Tumor uptake 1 h [3]: 6.0 ± 0.90 % ID/g | Tumor uptake 4 h [3]: 5.8 ± 0.60 % ID/g | Tumor uptake 24 h [3]: 2.8 ± 0.40 % ID/g
Structure (SMILES): N#C[C@@H]1CC(F)(F)CN1C(=O)CNC(=O)c1ccnc2ccc(OCCCCN3CCN(C(=O)CN4CCN(CC(=O)O)CCN(CC(=O)O)CCN(CC(=O)O)CC4)CC3)cc12 [FAPI-05]

IC50 (human FAP-α; [4]): 9.1 nM | Tumor uptake 1 h [3]: 3.4 ± 1.13 % ID/g | Tumor uptake 4 h [3]: 4.6 ± 0.32 % ID/g | Tumor uptake 24 h [3]: 1.1 ± 0.25 % ID/g
Structure (SMILES): N#C[C@@H]1CC(F)(F)CN1C(=O)CNC(=O)c1ccnc2ccc(OCCOCCOCCN3CCN(C(=O)CN4CCN(CC(=O)O)CCN(CC(=O)O)CCN(CC(=O)O)CC4)CC3)cc12 [FAPI-15]
